This note sets out measurements from patent US10913757B2, “Hydroxycinnamic derivatives, methods and uses thereof” (UNIVERSIDADE DO PORTO, priority 2016, dated 2021).

Holding throughout (assay type): cell-based, human
Data set [1] deals with HepG2 cells. Put plainly: Cytotoxicity screening in HepG2 cells, SRB assay. The note with it: HepG2, 48 hour. How it is done: In an embodiment, and as an example, the cytotoxicity of two AntiOxCINs (AntiOxCIN4 and AntiOxCIN6) was assessed using monolayer cultures of human hepatocytes from hepatocellular carcinoma (HepG2) and SRB method (FIG. 8A). […] Remarkably, at concentrations higher than 2.5 μM AntiOxCIN6 inhibited cell proliferation, while at concentrations higher than 100 μM AntiOxCIN4 stimulated cell proliferation.
(§1) In an embodiment, the cytotoxicity profile of AntiOxCIN4 and AntiOxCIN6 was evaluated in human hepatocellular carcinoma HepG2 cells. Human hepatocellular carcinoma HepG2 cells were cultured in high-glucose medium composed by Dulbecco's modified Eagle's medium (DMEM; D5648) supplemented with sodium pyruvate (0.11 g/L), sodium bicarbonate (1.8 g/L) and 10% fetal bovine serum (FBS) and 1% of antibiotic penicillin-streptomycin 100× solution. Cells were maintained at 37° C. in a humidified incubator with 5% CO2. HepG2 cells were seeded at density of 4×10^4 cells/mL and grown for 24 hours before treatment.
In an embodiment the cytotoxicity screening was performed as follows: cells were placed on 48-well plate (2×10^4 cells/500 μL) and then were incubated during 48 hour with AntiOxCIN4 and AntiOxCIN6 concentrations ranging 25 μM to 500 μM or 0.5 μM to 25 μM, respectively. After incubation, sulforhodamine B (SRB) assay was used for cell density determination based on the measurement of cellular protein content. Briefly, after incubation, the medium was removed and wells rinsed with PBS (1×). Cells were fixed by adding 1% acetic acid in 100% methanol for at least 2 hours at −20° C. Later, the fixation solution was discarded and the plates were dried in an oven at 37° C. […] Finally, 200 μl of each supernatant was transferred in 96-well plates and optical density was measured at 540 nm. Data are means±SEM of four independent experiments and the results are expressed as percentage of control (control=100%), which represents the cell density without any treatment in the respective time point.
(In general: The SRB assay estimates cell density from bound dye.)

The test system of data set [2] is HepG2 cells. The data set can be described thus: Cellular antioxidant screening in HepG2 cells (FeSO4 or H2O2), SRB assay. The note with it: pre-incubated 1 hour, AntiOxCIN4 100 μM, AntiOxCIN6 2.5 μM; for prevention of iron-induced HepG2 cytotoxicity (cell proliferation): 250 μM FeSO4 48 h; for prevention of hydrogen peroxide-induced HepG2 cytotoxicity (cell proliferation): 250 μM H2O2 48 h. Here is the method: In an embodiment, as an example, the antioxidant cellular outline of AntiOxCIN4 and AntiOxCIN6 was assessed using monolayer cultures of human hepatocytes from hepatocellular carcinoma (HepG2) and two different oxidative stressors (250 μM FeSO4 or 250 μM H2O2) (FIG. 8B). […] The higher efficacy of AntiOxCIN4 is in agreement with the data attained from TAC assays (Table 1) and RLM assays (FIG. 4).
as §1
In an embodiment, the cellular antioxidant screening was performed as follows: cells were placed on 48-well plate (2×10^4 cells/500 μL) and pre-incubated with non-toxic concentrations of AntiOxCIN4 (100 μM) or AntiOxCIN6 (2.5 μM) for 1 hour. After the incubation time, cells were exposed to oxidative stress conditions by the addition of 250 μM FeSO4 or 250 μM H2O2 for 48 hours. At the end of incubation time, SRB assay was used for cell density determination as previously described. Data are means±SEM of four independent experiments. The results are expressed as percentage of control (control=100%), which represents the cell density without any treatment in the respective time point.

Data set [3] has as its system HepG2 cells. Put plainly: Morphological alterations in HepG2 cells, vital epifluorescence microscopy (TMRM, Hoechst 33342). Particulars: HepG2, 48 h; AntiOxCIN4 100 μM, AntiOxCIN6 2.5 μM, FIG. 8C; methanesulfonate. Here is the method:
In an embodiment, as an example, the morphological changes in mitochondrial network and nuclei chromatin condensation of AntiOxCIN4 and AntiOxCIN6 have been determined. HepG2 cells were treated with AntiOxCINs for 48 h and then incubated with the mitochondrialΔΨ-dependent fluorescent probes TMRM and DNA dye Hoechst 33342.
In an embodiment, the detection of morphological alterations, including chromatin condensation and mitochondrial polarization and distribution by vital epifluorescence microscopy was performed as follows: cells were placed in 6-well plates with a glass coverslip per well (8×10^4 cells/2 mL) and then treated with non-toxic concentrations of AntiOxCIN4 or AntiOxCIN6 for 48 hours. Thirty minutes prior the end of the incubation time, the mitochondrial network was stained with TMRM (100 nM) while nuclei were stained with Hoechst 33342 (1 μg/mL), to detect apoptotic chromatin condensation, in HBSS (NaCl 137 mM, KCl 5.4 mM, NaHCO3 4.2 mM, Na2HPO4 0.3 mM, KH2PO4 0.4 mM, CaCl2 1.3 mM, MgCl2 0.5 mM, MgSO4 0.6 mM, and D-glucose 5.6 mM, pH 7.4) at 37° C. under dark conditions. Glass coverslips were removed from the wells and placed on glass slides with a drop of mounting medium. The cell images were acquired using a Zeiss LSM 510Meta microscope and analysed with ImageJ software 1.49v. […]

Entries after “also recorded” stand apart in the source; their conditions may differ.

In the case of `CS(=O)(=O)[O-].O=C(/C=C/c1cc(O)c(O)c(O)c1)NCCCCCC[P+](c1ccccc1)(c1ccccc1)c1ccccc1` [AntiOxCIN4, (E)-(6-(3-(3,4,5-trihydroxyphenyl)prop-2-enamido)hexyl)triphenylphosphonium methanesulfonate], in the data set on HepG2 cells [1] (FIG. 8A), the “concentration above which cell proliferation was stimulated” value was “higher than 100 μM”. Besides, in the data set on HepG2 cells [2], the “prevention of iron-induced HepG2 cytotoxicity (cell proliferation)” value is reported as “significantly prevented” and the “prevention of hydrogen peroxide-induced HepG2 cytotoxicity (cell proliferation)” value is given as “significantly prevented”. In addition, the “nuclear morphology and mitochondrial polarization” value with HepG2 cells [3] was “did not induce nuclear morphological changes neither mitochondrial depolarization; also recorded: did not disturb the normal nuclear morphology and mitochondrial polarization”.

In the case of `CS(=O)(=O)[O-].O=C(/C=C/c1ccc(O)c(O)c1)NCCCCCCCCCC[P+](c1ccccc1)(c1ccccc1)c1ccccc1` [AntiOxCIN6, (E)-(10-(3-(3,4-dihydroxyphenyl)acrylamido)decyl)triphenylphosphonium methanesulfonate], the “toxicity toward HepG2 cells (comparison)” value with HepG2 cells [1] is “higher toxicity than AntiOxCIN4”. The “concentration above which cell proliferation was inhibited” value with HepG2 cells [1] (FIG. 8A) was “higher than 2.5 μM”. In addition, in the data set on HepG2 cells [2], the “prevention of iron-induced HepG2 cytotoxicity (cell proliferation)” value is “significantly prevented” and the “prevention of hydrogen peroxide-induced HepG2 cytotoxicity (cell proliferation)” value is on record as “significantly prevented”. In addition, in the data set on HepG2 cells [3], the “nuclear morphology and mitochondrial polarization” value is “did not induce nuclear morphological changes neither mitochondrial depolarization; also recorded: did not disturb the normal nuclear morphology and mitochondrial polarization”.
